Patent US8741940B2, “Microbicidal composition” (Rohm and Haas Company, priority 2005, dated 2014)

What was measured:
Assay type in all cases: cell-based
[1] = system: Escherichia coli (E. coli—ATCC #8739); assay: Synergy test, microtiter plate high resolution MIC assay, bacterium in M9GY medium; design: key to SI (synergy index): SI = Qa/QA + Qb/QB; >1 antagonism, lower SI = greater synergy; Qa (First Component A) / Qb (Second Component B): unit: ppm
Experimental: (§1) When the sum of Qa/QA and Qb/QB is greater than one, antagonism is indicated. […] The lower the SI, the greater the synergy shown by that particular mixture. The minimum inhibitory concentration (MIC) of a microbicide is the lowest concentration tested under a specific set of conditions that prevents the growth of added microorganisms.
(§2) Synergy tests were conducted using standard microtiter plate assays with media designed for optimal growth of the test microorganism. Minimal salt medium supplemented with 0.2% glucose and 0.1% yeast extract (M9GY medium) was used for testing bacteria; Potato Dextrose Broth (PDB medium) was used for testing yeast and mold. In this method, a wide range of combinations of microbicides and other personal care raw materials was tested by conducting high resolution MIC assays in the presence of various concentrations of BBIT or MBIT. High resolution MICs were determined by adding varying amounts of microbicide to one column of a microtitre plate and doing subsequent […] dilutions using an automated liquid handling system to obtain a series of endpoints ranging from 2 ppm to 10,000 ppm active ingredient.
(§3) The bacteria were used at a concentration of about 5 ×10^6 bacteria per mL and the yeast and mold at 5×10^5 fungi per mL. These microorganisms are representative of natural contaminants in many consumer and industrial applications. […] (yeast and mold) or 30° C. (bacteria).
(§4) In each test, First Component (A) was BBIT and the Second Component (B) was the other commercial microbicide.
(§5) In each test, First Component (A) was MBIT and the Second Component (B) was the other commercial microbicide.

[2] = system: Aspergillus niger (A. niger—ATCC 16404); assay: Synergy test, microtiter plate high resolution MIC assay, mold in PDB medium; design: key to SI (synergy index): SI = Qa/QA + Qb/QB; >1 antagonism, lower SI = greater synergy; Qb (Second Component B) / Qa (First Component A): unit: ppm
Experimental: as §1, §2, §3, §4, §5

[3] = system: Candida albicans (C. albicans—ATCC 10231); assay: Synergy test, microtiter plate high resolution MIC assay, yeast in PDB medium; design: key to SI (synergy index): SI = Qa/QA + Qb/QB; >1 antagonism, lower SI = greater synergy; Qb (Second Component B) / Qa (First Component A): unit: ppm
Experimental: as §1, §2, §3, §4, §5

| MIC ([1]; Escherichia coli, ATCC8739, E. coli 8739, M9GY, 48 hours, alone where Qa = 0, otherwise in the mixture, read-out: Qb (concentration of second component producing the end point, MIC)) [µg/mL] | MIC ([2]; Aspergillus niger, ATCC16404, 168 h, A. niger 16404, PDB, 7 days, alone where Qa = 0, otherwise in the mixture, read-out: Qb (concentration of second component producing the end point, MIC)) [µg/mL] | MIC ([3]; Candida albicans, ATCC10231, C. albicans 10231, PDB, 24 hours, alone where Qa = 0, otherwise in the mixture, read-out: Qb (concentration of second component producing the end point, MIC)) [µg/mL] | SMILES | SI (synergy index) ([1]; E. coli 8739, M9GY, 48 hours) | SI ([1]; E. coli 8739 - M9GY, 24 hours, BBIT with Propylparaben) | SI (synergy index) ([2]; A. niger 16404, PDB, 7 days) | SI ([2]; A. niger 16404 - PDB, 7 days, BBIT with Propylparaben) | SI (synergy index) ([3]; C. albicans 10231, PDB, 24 hours) | SI ([3]; C. albicans 10231 - PDB, 24 hours, BBIT with Propylparaben) | Qb (Second Component B) [1] | Qb (concentration of second component producing the end point, MIC) [1] [ppm] | Qb (Second Component B) [2] | Qb (concentration of second component producing the end point, MIC) [2] [ppm] | Qb (Second Component B) [3] | Qb (concentration of second component producing the end point, MIC) [3] [ppm] |
| --- | --- | --- | --- | --- | --- | --- | --- | --- | --- | --- | --- | --- | --- | --- | --- |
| 4000 | 2000 | 2000 | CCCOC(=O)c1ccc(O)cc1 [Propylparaben] | 1.00 | 1.00 | 1.00 | 1.00 | 1.00 | 1.00 |  |  |  |  |  |  |
|  |  |  | O=C([O-])CC(O)(CC(=O)[O-])C(=O)[O-].[Na+].[Na+].[Na+] [Sodium citrate] |  |  |  |  |  |  | 20000 | 20000 | 10000 | 10000 | 10000 | 10000 |
